# “Also recorded” adds a separate entry of the source.
# Key:
# [1] = system: cyclin D1 protein (Thr286 phosphorylation); assay: Western blot of total cyclin D1 and pThr286 in HCT 116 cells after U0126 or GSK3 inhibitor; format: cell-based, human; settings: cycling HCT 116; GSK3α/β inhibitor 24 hours
# Experimental: (§1) FIG. 11 illustrates that ERK/MAPK is identified as the major kinase that is responsible for the stability of cyclin D1 protein. Panels A-F: Pulse-chase analysis of cyclin D1 protein in HCT 116 cells after exposure to the MEK inhibitor U0126 (A-C) or the GSK3 inhibitor BIO (D-F). Exponentially growing HCT 116 cells were treated with either DMSO or 10 μM of U0126 (A-C) for 30 minutes, or DMSO or 5 μM of BIO (D-F) for 24 hours. Panels A and D: Cells were pulse-labeled with ^35S-methionine for 1 hour. Subsequently these cells were chased with cold methionine for the indicated times, and then lysed respectively. Cyclin D1 was immunoprecipitated and then analyzed with SDS-PAGE. Autoradiography was performed. Levels of metabolically labeled-cyclin D1 were estimated by quantitative scanning using the Quantity One (Bio-Rad) software and blotted on the graph to determine the half-life of cyclin D1. Panels B and E: Western blot analysis. The membrane was blotted with a cyclin D1 Thr286 phosphorylation specific (pThr286), total cyclin D1, a phosphorylation specific ERK, and total ERK antibodies (B), or a pThr286, cyclin D1, a GSKα/β phosphorylation specific, and GSK3β antibodies (E). Panels C and F: Cell cycle distributions were shown. Panel G: Western blot analysis following transfection of various forms of HA-tagged cyclin D1 expression vectors in both NIH 3T3 mouse fibroblast (left) and HCT 116 colon cancer (right) cells. In lane 5 and 10, cells were treated with 5 μM of BIO for further 24 hours following transfection of the ΔD CD1 mutant.
# Immunoblotting Analysis. […] SDS-PAGE was described previously (Tetsu and McCormick, 2003).
# To determine the contribution of ERK/MAPK to the stability of cyclin D1 in cancer cells, MAPK activity was inhibited with the MEK inhibitor U0126 (Favata et al., 1998. J Bio Chem. 273, 18623-32; Davies et al., 2000. Biochem J. 351, 95-105). Exponentially growing HCT 116 colon cancer cells were treated with U0126 for 30 minutes (FIG. 11, Panels A-C).
# In contrast, no effect on phosphorylation status and stability of cyclin D1 protein through inhibition of GSK3α/β ([…], Panels D-F) were detected. […] Cycling HCT 116 colon cancer cells were treated with BIO for 24 hours (FIG. 11, Panels D-F). A phosphorylation specific antibody to GSK3α and β was used to measure their endogenous activities because phosphorylations of GSK3α at Tyr279 and GSK3β at Tyr216 are intramolecular autophosphorylation events in the cells. Thus, phosphorylation status reflects their kinase activities (Cole et al., 2004. Biochem J. 377, 249-55).
# GSK3α/β = assay: Phosphorylation-specific blot for GSK3α/β, HCT 116 cells; format: cell-based, human; settings: BIO 24 hours
# Experimental: as §1, with “Panel G: Western blot analysis following transfection of various forms of HA-tagged cyclin D1 expression vectors in both NIH 3T3 mouse fibroblast (left) and HCT 116 colon cancer (right) cells. In lane 5 and 10, cells were treated with 5 μM of BIO for further 24 hours following transfection of the ΔD CD1 mutant.” left out
# In contrast, no effect on phosphorylation status and stability of cyclin D1 protein through inhibition of GSK3α/β (FIG. 14, Panels D-F) were detected. […]
# [2] = system: cyclin D1 Thr286 phosphorylation; assay: Thr286 phosphorylation of transfected ΔD cyclin D1 after BIO, HCT 116 cells; format: cell-based, human; settings: 5 μM BIO 24 hours after transfection
# Text: (§2) FIG. 9 illustrates that MAPK directly binds to cyclin D1 through the MAPK docking site (D-domain) within cyclin D1 and phosphorylates it specifically at Thr286. Panel A: p42 ERK2-associated GST-cyclin D1 (CD1) in vitro kinase assays (upper panels). Purified ERK2 phosphorylates cyclin D1 in vitro. Immuno-blotting (IB) analyses stained with a GST antibody (lower panels) were provided as a reference to show loading conditions of various forms of GST-CD1 fusion proteins. (A) GST alone (lane 1), GST-human (h) CD1 amino acids (A.A.) from 165 to 295 (165-295, lane 2), GST-human (h) or mouse (m) CD1 A.A. from 255 to 295 (255-295, lane 3 and 4) were used. Panel B: Western blot analysis following transfection of various forms of HA-tagged cyclin D1 expression vectors in both NIH 3T3 mouse fibroblast (left) and HCT 116 colon cancer (right) cells. In lane 5 and 10, Cells were treated with 5 μM of a highly specific GSK3β inhibitor BIO for further 24 hours following transfcetion of the ΔD CD1 mutant.
# (§3) FIG. 11 illustrates that ERK/MAPK is identified as the major kinase that is responsible for the stability of cyclin D1 protein. […] Cyclin D1 was immunoprecipitated and then analyzed with SDS-PAGE. […] Levels of metabolically labeled-cyclin D1 were estimated by quantitative scanning using the Quantity One (Bio-Rad) software and blotted on the graph to determine the half-life of cyclin D1. […]
# [3] = system: cyclin D1 Thr286 phosphorylation; assay: Thr286 phosphorylation of transfected ΔD cyclin D1 after BIO, NIH 3T3 cells; format: cell-based, mouse; settings: 5 μM BIO 24 hours after transfection
# Text: as §2, §3
structure (smiles),measurement,setting,value
O=C1Nc2cc(Br)ccc2/C1=C1/Nc2ccccc2/C1=N\O [BIO],expression of total cyclin D1 and its phosphorylated protein,[1],no significant difference
same,phosphorylated forms of GSK3α/β,GSK3α/β,disappeared
same,phosphorylation status of cyclin D1 at Thr286 (ΔD mutant),[2],did not show any significant effect; also recorded: minimal effect
same,phosphorylation status of cyclin D1 at Thr286 (ΔD mutant),[3],slight change; also recorded: reduction
